Laboratory results: publication PMC11129182, “Development of Inhibitors, Probes, and PROTAC Provides a Complete Toolbox to Study PARK7 in the Living Cell” (Journal of Medicinal Chemistry, 2024)

Molecular target: T1, PARK7 (Homo sapiens, UniProt Q99497)
T1 sequence (Q99497 1-189): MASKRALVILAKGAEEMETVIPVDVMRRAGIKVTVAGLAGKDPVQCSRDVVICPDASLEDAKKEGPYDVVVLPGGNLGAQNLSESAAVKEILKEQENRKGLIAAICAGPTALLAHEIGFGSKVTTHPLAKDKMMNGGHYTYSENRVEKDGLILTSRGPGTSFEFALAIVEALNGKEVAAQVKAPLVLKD
Experiment: High-throughput screen of the crude compound library, PARK7 fluorescence polarization (FP) assay with FP reagent JYQ-107
Format: biochemical
Settings: 1.25 µM, crude compound library; read-out: HTS FP assay %Inhibition (1.25 µM)

inhibition at 1.25 µM [%]	SMILES
72.5	N#CN1CC[C@@H](C(=O)Nc2nc3c(s2)CN(C(=O)c2ccc(S(=O)(=O)Nc4cccc(Cl)c4F)o2)CC3)C1 [compound 205]
50.6	N#CN1CC[C@@H](C(=O)Nc2nc3c(s2)CN(C(=O)C2CCCN2C(=O)c2ccncc2)CC3)C1 (some centres unmarked) [compound 206]
70	Cc1ccc(S(=O)(=O)N[C@@H](Cc2ccccc2)C(=O)N2CCc3nc(NC(=O)[C@@H]4CCN(C#N)C4)sc3C2)cc1 [compound 207]
86.4	N#CN1CC[C@@H](C(=O)Nc2nc3c(s2)CN(C(=O)c2csc(-c4ccc(Br)s4)n2)CC3)C1 [compound 208]
86.7	N#CN1CC[C@@H](C(=O)Nc2nc3c(s2)CN(C(=O)c2cc(C4CC4)n[nH]2)CC3)C1 [compound 209]
63.9	N#CN1CC[C@@H](C(=O)Nc2nc3c(s2)CN(C(=O)c2cc(-c4ccncc4)on2)CC3)C1 [compound 210]
86.4	N#CN1CC[C@@H](C(=O)Nc2nc3c(s2)CN(C(=O)c2ccc(N4CCCC4)c(F)c2)CC3)C1 [compound 211]
85.1	N#CN1CC[C@@H](C(=O)Nc2nc3c(s2)CN(C(=O)Cc2ccc(OCCOc4ccccc4)cc2)CC3)C1 [compound 212]
67.7	Cc1cc(C(=O)N2CCc3nc(NC(=O)[C@@H]4CCN(C#N)C4)sc3C2)c(C)n1-c1cccnc1 [compound 213]
59.5	N#CN1CC[C@@H](C(=O)Nc2nc3c(s2)CN(C(=O)c2csc(-c4ccncc4)n2)CC3)C1 [compound 214]
76.7	N#CN1CC[C@@H](C(=O)Nc2nc3c(s2)CN(C(=O)C2CN(C(=O)OCc4ccccc4)CCO2)CC3)C1 (some centres unmarked) [compound 216]
69.2	N#CN1CC[C@@H](C(=O)Nc2nc3c(s2)CN(C(=O)c2cccn2-c2c(Cl)cccc2Cl)CC3)C1 [compound 218]
27.6	Cn1cc(-c2ccc(C(=O)N3CCc4nc(NC(=O)[C@@H]5CCN(C#N)C5)sc4C3)o2)cn1 [compound 220]
94.8	N#CN1CC[C@@H](C(=O)Nc2nc3c(s2)CN(C(=O)c2ccc(F)c(S(=O)(=O)N4CCC4)c2)CC3)C1 [compound 221]
63.8	CN1C(=O)C[C@@H](C(=O)N2CCc3nc(NC(=O)[C@@H]4CCN(C#N)C4)sc3C2)[C@@H]1c1cccnc1 [compound 222]
74	Cc1nc(COc2ccccc2C(=O)N2CCc3nc(NC(=O)[C@@H]4CCN(C#N)C4)sc3C2)no1 [compound 223]
73.5	Cc1onc(-c2ccncc2)c1C(=O)N1CCc2nc(NC(=O)[C@@H]3CCN(C#N)C3)sc2C1 [compound 224]
86.9	N#CN1CC[C@@H](C(=O)Nc2nc3c(s2)CN(C(=O)c2cccc(OCCOc4ccccc4Cl)n2)CC3)C1 [compound 225]
68.7	N#CN1CC[C@@H](C(=O)Nc2nc3c(s2)CN(C(=O)CC2(n4cnnn4)CCOCC2)CC3)C1 [compound 226]
74	N#CN1CC[C@@H](C(=O)Nc2nc3c(s2)CN(C(=O)c2sc(N4CCCC4)nc2Cl)CC3)C1 [compound 227]
62.2	COc1ccc(CN2CCC2C(=O)N2CCc3nc(NC(=O)[C@@H]4CCN(C#N)C4)sc3C2)cc1 (some centres unmarked) [compound 228]
72.8	COCC1CCN(c2ccc(C(=O)N3CCc4nc(NC(=O)[C@@H]5CCN(C#N)C5)sc4C3)cc2)C1 (some centres unmarked) [compound 229]

inhibition at 1.25 µM [%]	SMILES
62.8	Cc1nn(-c2cccnc2)nc1C(=O)N1CCc2nc(NC(=O)[C@@H]3CCN(C#N)C3)sc2C1 [compound 230]
67.1	Cc1nn(-c2ccccn2)c(C)c1CC(=O)N1CCc2nc(NC(=O)[C@@H]3CCN(C#N)C3)sc2C1 [compound 231]
76	N#CN1CC[C@@H](C(=O)Nc2nc3c(s2)CN(C(=O)c2ccnn2C2CCC2)CC3)C1 [compound 232]
77.5	N#CN1CC[C@@H](C(=O)Nc2nc3c(s2)CN(C(=O)CC2(Cn4cnnn4)CCCCC2)CC3)C1 [compound 233]
82.7	N#CN1CC[C@@H](C(=O)Nc2nc3c(s2)CN(C(=O)c2cn(CC4CCOC4)nn2)CC3)C1 (some centres unmarked) [compound 234]
67.4	N#CN1CC[C@@H](C(=O)Nc2nc3c(s2)CN(C(=O)c2ccn(-c4ccc(C(F)(F)F)cn4)n2)CC3)C1 [compound 235]
58.7	N#CN1CC[C@@H](C(=O)Nc2nc3c(s2)CN(C(=O)c2sccc2S(=O)(=O)NCc2ccco2)CC3)C1 [compound 236]
80	N#CN1CC[C@@H](C(=O)Nc2nc3c(s2)CN(C(=O)c2cnn(Cn4cc(Cl)cn4)c2)CC3)C1 [compound 237]
53.7	N#CN1CC[C@@H](C(=O)Nc2nc3c(s2)CN(C(=O)c2nc(OCC4CC4)ccc2Cl)CC3)C1 [compound 238]
67.1	CC(C(=O)N1CCc2nc(NC(=O)[C@@H]3CCN(C#N)C3)sc2C1)n1ccc(C2CC2)n1 (some centres unmarked) [compound 239]
75.1	Cn1cc(S(=O)(=O)N2CCOCC2)cc1C(=O)N1CCc2nc(NC(=O)[C@@H]3CCN(C#N)C3)sc2C1 [compound 240]
86.1	Cn1nc(CC(=O)N2CCc3nc(NC(=O)[C@@H]4CCN(C#N)C4)sc3C2)cc1C1CC1 [compound 241]
61.9	Cc1sc(-n2cnnn2)c(C(=O)N2CCc3nc(NC(=O)[C@@H]4CCN(C#N)C4)sc3C2)c1C [compound 243]
58.5	Cc1noc(-c2ccc(C(=O)N3CCc4nc(NC(=O)[C@@H]5CCN(C#N)C5)sc4C3)cc2)n1 [compound 244]
10.9	N#CN1CC[C@@H](C(=O)Nc2nc3c(s2)CN(C(=O)c2cc(-c4cccc(Cl)c4)no2)CC3)C1 [compound 245]
82.7	CCOc1oc(-c2ccco2)nc1C(=O)N1CCc2nc(NC(=O)[C@@H]3CCN(C#N)C3)sc2C1 [compound 246]
86.9	Cc1ccc(S(=O)(=O)NCCc2ccc(F)cc2)cc1C(=O)N1CCc2nc(NC(=O)[C@@H]3CCN(C#N)C3)sc2C1 [compound 247]
84.8	Cc1nc(-c2ccco2)ccc1C(=O)N1CCc2nc(NC(=O)[C@@H]3CCN(C#N)C3)sc2C1 [compound 248]
73.8	N#CN1CC[C@@H](C(=O)Nc2nc3c(s2)CN(C(=O)C2(CC(=O)N4CCOCC4)CCCC2)CC3)C1 [compound 249]
67.7	CN(Cc1ccccc1)C(=O)N1CCC(C(=O)N2CCc3nc(NC(=O)[C@@H]4CCN(C#N)C4)sc3C2)CC1 [compound 250]
66.6	N#CN1CC[C@@H](C(=O)Nc2nc3c(s2)CN(C(=O)C2(NS(=O)(=O)C=Cc4ccccc4)CCCC2)CC3)C1 [compound 251]
74.6	N#CN1CC[C@@H](C(=O)Nc2nc3c(s2)CN(C(=O)C(Cc2ccccc2)N2CCCOC2=O)CC3)C1 (some centres unmarked) [compound 252]

inhibition at 1.25 µM [%]	SMILES
85.9	N#CN1CC[C@@H](C(=O)Nc2nc3c(s2)CN(C(=O)c2ccc(N4CCCS4(=O)=O)cc2)CC3)C1 [compound 253]
53.9	Cc1ccc(CN2C(=O)CCC2C(=O)N2CCc3nc(NC(=O)[C@@H]4CCN(C#N)C4)sc3C2)cc1 (some centres unmarked) [compound 254]
74	N#CN1CC[C@@H](C(=O)Nc2nc3c(s2)CN(C(=O)c2nc(C4CC4)ncc2Br)CC3)C1 [compound 255]
61.4	CN1C(=O)CCC(C(=O)N2CCc3nc(NC(=O)[C@@H]4CCN(C#N)C4)sc3C2)C1c1cccs1 (some centres unmarked) [compound 256]
75.5	COc1ccc(CC(=O)N2CCc3nc(NC(=O)[C@@H]4CCN(C#N)C4)sc3C2)cc1S(=O)(=O)N1CCOCC1 [compound 257]
69.8	Cc1noc(C)c1S(=O)(=O)N1CCCC1C(=O)N1CCc2nc(NC(=O)[C@@H]3CCN(C#N)C3)sc2C1 (some centres unmarked) [compound 259]
61.7	Cc1cc(C(=O)N(C)c2ccccc2C(=O)N2CCc3nc(NC(=O)[C@@H]4CCN(C#N)C4)sc3C2)sc1C [compound 260]
84.5	N#CN1CC[C@@H](C(=O)Nc2nc3c(s2)CN(C(=O)c2ccc(N4CCCCCC4)nc2)CC3)C1 [compound 261]
71.9	N#CN1CC[C@@H](C(=O)Nc2nc3c(s2)CN(C(=O)CC2=NN(c4cccc(Cl)c4)C(=O)C2)CC3)C1 [compound 262]
78.3	Cc1oc(-c2cccs2)nc1C(=O)N1CCc2nc(NC(=O)[C@@H]3CCN(C#N)C3)sc2C1 [compound 263]
67.7	N#CN1CC[C@@H](C(=O)Nc2nc3c(s2)CN(C(=O)c2ccnc(C4CC4)n2)CC3)C1 [compound 264]
70.6	Cn1ccnc1CN1CCC(C(=O)N2CCc3nc(NC(=O)[C@@H]4CCN(C#N)C4)sc3C2)CC1 [compound 265]
73.2	N#CN1CC[C@@H](C(=O)Nc2nc3c(s2)CN(C(=O)c2cc(C4CC4)no2)CC3)C1 [compound 266]
75.5	N#CN1CC[C@@H](C(=O)Nc2nc3c(s2)CN(C(=O)C2CCN(C(=O)c4ccc(Cl)s4)CC2)CC3)C1 [compound 267]
85.9	CC1CN(c2ccc(C(=O)N3CCc4nc(NC(=O)[C@@H]5CCN(C#N)C5)sc4C3)cn2)CC(C)O1 (some centres unmarked) [compound 269]
87.2	N#CN1CC[C@@H](C(=O)Nc2nc3c(s2)CN(C(=O)c2csc(C4CCCCC4)n2)CC3)C1 [compound 270]
81.3	N#CN1CC[C@@H](C(=O)Nc2nc3c(s2)CN(C(=O)c2occc2-c2ccccc2)CC3)C1 [compound 271]
83.3	N#CN1CC[C@@H](C(=O)Nc2nc3c(s2)CN(C(=O)c2ccc(Cn4cccn4)s2)CC3)C1 [compound 272]
67.4	N#CN1CC[C@@H](C(=O)Nc2nc3c(s2)CN(C(=O)C2CC4CCC2O4)CC3)C1 (some centres unmarked) [compound 273]
72	N#CN1CC[C@@H](C(=O)Nc2nc3c(s2)CN(C(=O)C2CC4C=CC2O4)CC3)C1 (some centres unmarked) [compound 275]
74.3	N#CN1CC[C@@H](C(=O)Nc2nc3c(s2)CN(C(=O)C2CC=CCC2C(=O)N2CCOCC2)CC3)C1 (some centres unmarked) [compound 276]
